In patent US20190185544A1, “COMPOSITIONS AND METHODS OF MODULATING ABETA PROTEIN” (University of South Florida, priority 2016, published 2019):

How the values were obtained:
p44/42 MAPK = p44/42 MAPK phosphorylation in CHO/APPwt cell lysates (WB); assay type: cell-based, Chinese hamster; settings: peptides 10 μM or apoE 10 μg/mL, 0 to 180 min
N-terminus of APP = assay: Co-immunoprecipitation and co-localisation with N-terminal APP in CHO/APPwt cells; assay type: binding, human; settings: peptides 10 μM or apoE 10 μg/mL, 2 h; IP with 6H3B5 or pN-APP
Experimental: Total secreted APP (t-sAPP) and full-length APP (f-APP) in total (inputs), immunoprecipitates and immunodepleted media and lysates were determined by WB using 22C11 or anti-C-terminal APP751/70 antibody (pC-APP), respectively (FIG. 20A left panels and FIG. 20B, top panels). Alternatively, conditioned media and cell lysates were IP with anti-N-terminal APP41/66 antibody (pN-APP) and apoE, or 6KApoEp and ApoEp, was determined using anti-human apoE antibody (ApoE1H4; FIG. 20A, right panels) or 6H3B5, respectively (FIG. 20B, bottom panels). In addition, CHO/APPwt cells were plated at 8 well-chambers at 1×10^5/well for 24 h, treated with 6K, ApoEp or 6KApoEp at 10 μM for 2 h, fixed in 4% paraformaldehyde and stained with 6H3B5 and pN-APP antibodies (FIG. 20C). Alexa Fluor 488 goat anti-mouse IgG (green) was used to detect ApoEp and 6KApoEp, while Alexa Fluor 594 donkey anti-rabbit IgG (red) was used to detect N-terminal APP. DAPI co-staining was done to show nuclear DNA. Homogenates prepared from three TgAPPwt mice (2 female/1 male), two AD patients (AD1[…], AD2[…]) and two normal age-matched control cortices (Ctrl1[…], Ctrl2[…]) were also IP with 6H3B5 or pN-APP and t-APP and apoE were determined using 6E10 and mApoE, respectively (FIGS. 20D-20E).
Total secreted APP in conditioned media and full length APP in cell lysates were then determined by WB using anti-N-terminal (22C11) and anti-C-terminal APP antibodies (pC-APP), respectively. […] In addition, ApoEp and 6KApoEp colocalized with N-terminal APP in cultured CHO/APPwt cells as determined by immunofluorescence staining with 6H3B5 and pN-APP antibodies (FIG. 20C), respectively, confirming that N-terminal APP physically associates with apoE in cell culture. […]
WB analyses were performed as previously described^43,44. […] For all other proteins detected by WB, 10% tris-SDS gels were used. Densitometry analysis was performed as previously described using a FluorS Multiimager with Quantity One™ software 43. […]

Chain of N-terminus of APP (P05067 18-189 limits assumed): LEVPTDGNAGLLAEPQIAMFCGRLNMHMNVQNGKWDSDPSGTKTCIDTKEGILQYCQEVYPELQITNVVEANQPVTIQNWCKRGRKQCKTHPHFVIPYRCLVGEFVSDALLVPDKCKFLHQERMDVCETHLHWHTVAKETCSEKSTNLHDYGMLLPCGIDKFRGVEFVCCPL

Substance | p44/42 MAPK phosphorylation (p44/42 MAPK) | immunoprecipitation and localization with N-terminal APP (N-terminus of APP)
ApoE4: human recombinant apolipoprotein E4 protein (BioVision) | activated both p44/42 and p38 MAPK phosphorylation | immunoprecipitated and localized with N-terminal APP in vivo and in vitro
ApoE3: human recombinant apolipoprotein E3 protein (BioVision) | activated both p44/42 and p38 MAPK phosphorylation | immunoprecipitated and localized with N-terminal APP in vivo and in vitro
